From US20090209576A1, “PHARMACEUTICAL COMPOSITION CONTAINING CLOPIDOGREL CAMPHORSULFONATE OR POLYMORPHIC FORMS THEREOF” (HANMI PHARM. CO., LTD., priority 2006, published 2009)
Counter-ions that a name gives are not always drawn. Like-named read-outs stand apart in the source and are kept apart here.

Key:
[1] = for water content / hygroscopicity under accelerated condition: 60° C. and 75% relative humidity for a period of over 28 days; for Amount of acid addition salts of clopidogrel / Amount of hydrolyzed impurities / Amount of levorotatory isomers / Water content: 60±2° C., 75±5% relative humidity
Protocol: (§1) Condition A: For the Measurement of the Assay of Acid Addition Salt of Clopidogrel
(§2) Column: Kromasil C18, 5 μm (250 mm×4.6 mm)
(§3) Mobile phase: Na2HPO4—NaH2PO4 buffer solution:TBF:CH3CN=5:2:3 (v/v)
Condition B: For the Measurement of the Amount of Hydrolyzed Impurities of Acid Addition Salt of Clopidogrel
Column: Capcellpak C18 MG, 5 μm (250 mm×4.6 mm)
Mobile phase: KH2PO4 buffer solution/CH3CN (70/30):KH2PO4 buffer solution/CH3CN (30/70)=0:100→[…] (v/v, gradient elution)
Condition C: For the Measurement of the Optical Purity of Acid Addition Salt of Clopidogrel
Column: Chiralpak AD, 5 μm (250 mm×4.6 mm)
Mobile phase: n-hexane:isopropanol=90:10 (v/v)
The camphorsulfonate polymorphic form A1 obtained in Example 1, the camphorsulfonate polymorphic form B1 obtained in Example 2, the hydrogen sulfate obtained in Comparative Example 1 and the benzenesulfonate obtained in Comparative Example 2 were each subjected to a condition of 60±2° C. and 75±5% relative humidity for a period of 28 days to test their stabilities. The changes of the assay of the acid addition salts of clopidogrel, and the amounts of hydrolyzed impurities and levorotatory isomers thereof and the water content thereof were measured at 7, 14, 21 and 28 days relative to that of the initial day (0) using HPLC. The results are shown in Tables 6 to 9 and FIGS. 12 to 15, respectively.

physchem = assay: physchem
From the text: as §1, §2, §3
The camphorsulfonate polymorphic form A1 obtained in Example 1, the camphorsulfonate polymorphic form B1 obtained in Example 2, the hydrogen sulfate obtained in Comparative Example 1 and the benzenesulfonate obtained in Comparative Example 2 were each dissolved in unionized water until saturated. The amounts of clopidogrel in the resulting solutions were measured under HPLC condition A, and the results are shown in Table 5.

[2] = dissolved in unionized water until saturated, HPLC condition A

Compound | water content / hygroscopicity under accelerated condition [1] | Amount of acid addition salts of clopidogrel ([1]; 0 day) [%] | Amount of hydrolyzed impurities ([1]; 0 day) [%] | Amount of levorotatory isomers ([1]; 0 day) [%] | Water content ([1]; 0 day) [%] | Amount of acid addition salts of clopidogrel ([1]; 7 days) [%] | Amount of hydrolyzed impurities ([1]; 7 days) [%] | Amount of levorotatory isomers ([1]; 7 days) [%] | Water content ([1]; 7 days) [%] | Amount of acid addition salts of clopidogrel ([1]; 14 days) [%] | Amount of hydrolyzed impurities ([1]; 14 days) [%] | Amount of levorotatory isomers ([1]; 14 days) [%] | Water content ([1]; 14 days) [%] | Water content ([1]; 21 days) [%] | Amount of acid addition salts of clopidogrel ([1]; 28 days) [%] | Amount of hydrolyzed impurities ([1]; 28 days) [%] | Amount of levorotatory isomers ([1]; 28 days) [%] | Water content ([1]; 28 days) [%] | Water-solubility (physchem; [2]) | other results
COC(=O)C(c1ccccc1Cl)N1CCc2sccc2C1 (stereo in doubt) [Camphorsulfonate (polymorphic form A1), clopidogrel (−)-(1R)-camphor-10-sulfonate] | almost maintain their original water contents | 99.2 | 0.01 | 0.02 | 0.0 | 99.1 | 0.08 | 0.02 | 0.1 | 99.6 | 0.15 | 0.02 | 0.0 | 0.0 | 99.1 | 0.17 | 0.02 | 0.1 | 4.04 mg/ml, as clopidogrel | solubility (physchem; unionized water, water, thermodynamic from solid): ~4000 µg/mL
COC(=O)[C@H](c1ccccc1Cl)N1CCc2sccc2C1 [Camphorsulfonate (polymorphic form B1), clopidogrel (+)-(1S)-camphor-10-sulfonate] | almost maintain their original water contents | 99.6 | 0.01 | 0.01 | 0.1 | 99.2 | 0.01 | 0.01 | 0.1 | 99.9 | 0.02 | 0.02 | 0.1 | 0.1 | 99.3 | 0.03 | 0.03 | 0.1 | 3.98 mg/ml, as clopidogrel | Water-solubility (physchem; measured in a saturated aqueous solution): around 4.0 mg/ml
COC(=O)[C@H](c1ccccc1Cl)N1CCc2sccc2C1 [Hydrogen sulfate, Clopidogrel hydrogen sulfate, reference compound] |  | 99.2 | 0.03 | 0.01 | 0.2 | 98.8 | 0.72 | 0.05 | 0.3 | 97.5 | 2.15 | 0.19 | 0.8 | 2.8 | 80.5 | 16.49 | 1.53 | 7.3 | 7.42 mg/ml, as clopidogrel | 
Clopidogrel benzenesulfonate [reference compound] |  | 99.3 | 0.01 | 0.01 | 0.1 | 93.9 | 2.79 | 0.81 | 6.4 | 80.5 | 8.56 | 2.49 | 7.3 | 9.2 | 61.7 | 25.33 | 4.79 | 9.4 | 4.74 mg/ml, as clopidogrel | 
